The experiment deals with T1, IL-23 binding to IL23R_huFC (human IL-23R) (Homo sapiens, UniProt P29460+Q9NPF7).
T1 sequence (Q9NPF7 20-189): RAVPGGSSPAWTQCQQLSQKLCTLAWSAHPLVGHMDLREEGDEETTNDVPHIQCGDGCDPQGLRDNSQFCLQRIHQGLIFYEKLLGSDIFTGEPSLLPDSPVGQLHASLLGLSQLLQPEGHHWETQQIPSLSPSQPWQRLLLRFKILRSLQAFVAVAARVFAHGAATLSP
T1 sequence (P29460 23-328): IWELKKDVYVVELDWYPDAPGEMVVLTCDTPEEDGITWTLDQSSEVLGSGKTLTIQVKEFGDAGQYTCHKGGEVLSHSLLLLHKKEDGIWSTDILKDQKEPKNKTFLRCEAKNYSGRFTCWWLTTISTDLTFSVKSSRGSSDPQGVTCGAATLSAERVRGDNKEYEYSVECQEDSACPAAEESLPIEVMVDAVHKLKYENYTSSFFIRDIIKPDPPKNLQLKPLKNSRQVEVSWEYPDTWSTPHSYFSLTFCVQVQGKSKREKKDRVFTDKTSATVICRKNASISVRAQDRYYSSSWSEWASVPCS
Put plainly: IL23-IL23R Competitive Binding ELISA. As to the method: Immulon® 4HBX plate was coated with 200 ng/well of IL23R_huFC and incubated overnight at 4° C. […] Serial dilutions of test peptides and IL-23 at a final concentration of 0.9 nM diluted in PBS were added to each well and incubated for 2 hours at room temperature. After the wells were washed, bound IL-23 was detected by incubation with 50 ng/well of goat anti-p40 polyclonal antibodies (R&D Systems #AF309) diluted in PBS for 1 hour at room temperature. The wells were again washed four times with PBST. […] The plate was finally washed as above. Signals were visualized with TMB One Component HRP Membrane Substrate, quenched with 2 M sulfuric acid and read spectrophotometrically at 450 nm.

Setting [1] is: inhibition of IL-23/IL-23R binding, IL-23 0.9 nM, class symbols, read-out: IC50 IL23R_huFC.

The structures appear in SMILES notation. Read-outs that look alike come from different tables or passages of the source. Bridge positions count the residues as written; N and C are the ends. Peptide text beside a SMILES is read from it.

`CC[C@H](C)[C@@H]1NC(=O)[C@H](CCCNC(=N)N)NC(=O)[C@H](C)NC(=O)[C@H](CC(N)=O)NC(=O)[C@H](CCCNC(=N)N)NC(=O)[C@H](CC(=O)O)NC(=O)[C@H](CCC(=O)O)NC(=O)[C@H](CCC(=O)O)NC(=O)[C@H](CC(N)=O)NC(=O)[C@H](CC(C)C)NC(=O)[C@H](CC(N)=O)NC(=O)[C@@H]2CCCN2C(=O)[C@H](CC(N)=O)NC(=O)[C@H](C)NC(=O)[C@H](C)NC(=O)[C@H](C)NC(=O)[C@H](Cc2c[nH]c3ccccc23)NC(=O)[C@H](Cc2ccc(O)cc2)NC(=O)[C@H](Cc2ccccc2)NC(=O)[C@H](CC(C)C)NC(=O)[C@H](CCCNC(=N)N)NC(=O)[C@H](CCC(N)=O)NC(=O)[C@@H](NC(=O)[C@H](Cc2ccccc2)NC(=O)[C@H](CCSC)NC(=O)[C@H](CC(N)=O)NC(=O)[C@H](Cc2ccccc2)NC(C)=O)CSSC[C@@H](C(N)=O)NC(=O)CNC(=O)[C@H](CC(=O)O)NC(=O)[C@H](CCCNC(=N)N)NC(=O)[C@H](Cc2ccccc2)NC(=O)[C@H](CO)NC(=O)[C@H](CC(C)C)NC1=O` [Peptide 3] (Ac-FNMFCQRLFYWAAANPNLNEEDRNARILSFRDGC-NH2; disulfide 5-34): under setting [1], the IC50 lay in the range of 10 to 100 µM. Take `CC[C@H](C)[C@@H]1NC(=O)CNC(=O)[C@H](C)NC(=O)[C@H](CCC(=O)O)NC(=O)[C@H](C(C)C)NC(=O)[C@H](CCSC)NC(=O)[C@H](CCCNC(=N)N)NC(=O)[C@H](CCCNC(=N)N)NC(=O)[C@H](CC(C)C)NC(=O)[C@@H](NC(=O)[C@H](CCC(N)=O)NC(=O)[C@H](CCSC)NC(=O)[C@H](CC(N)=O)NC(=O)[C@H](Cc2ccccc2)NC(C)=O)CSSC[C@@H](C(N)=O)NC(=O)[C@H](CC(=O)O)NC(=O)[C@H](CC(=O)O)NC(=O)[C@H](Cc2ccccc2)NC(=O)[C@H]([C@@H](C)CC)NC(=O)[C@H](CO)NC(=O)[C@H](CCCNC(=N)N)NC(=O)[C@H]([C@@H](C)CC)NC(=O)[C@H](CCCCN)NC(=O)[C@H](C)NC(=O)[C@H](Cc2c[nH]c3ccccc23)NC(=O)[C@H](CCCNC(=N)N)NC(=O)[C@H](CCC(N)=O)NC(=O)CNC(=O)[C@H](CO)NC(=O)[C@H](CC(N)=O)NC(=O)[C@H](CC(C)C)NC(=O)[C@H](CC(N)=O)NC(=O)[C@@H]2CCCN2C(=O)[C@H](CC(=O)O)NC1=O` [Peptide 8] (Ac-FNMQCLRRMVEAGIDPNLNSGQRWAKIRSIFDDC-NH2; disulfide 5-34): the IC50 under setting [1] lay in the range of 10 to 100 µM. `CC[C@H](C)[C@@H]1NC(=O)[C@H](CCCCN)NC(=O)[C@H](C)NC(=O)[C@H](CC(N)=O)NC(=O)[C@H](CCCNC(=N)N)NC(=O)[C@H](CCC(N)=O)NC(=O)[C@H](CCC(=O)O)NC(=O)[C@H](CCC(=O)O)NC(=O)[C@H](CC(N)=O)NC(=O)[C@H](CC(C)C)NC(=O)[C@H](CC(N)=O)NC(=O)[C@@H]2CCCN2C(=O)[C@H](CC(=O)O)NC(=O)[C@H](C)NC(=O)[C@H](C)NC(=O)[C@H](C)NC(=O)[C@H](CO)NC(=O)[C@H](Cc2ccc(O)cc2)NC(=O)[C@H](Cc2ccccc2)NC(=O)[C@H](C)NC(=O)[C@H](CC(C)C)NC(=O)[C@H](CCC(N)=O)NC(=O)[C@@H](NC(=O)[C@H](Cc2ccccc2)NC(=O)[C@H](CCSC)NC(=O)[C@H](CC(N)=O)NC(=O)[C@H](Cc2ccccc2)NC(C)=O)CSSC[C@@H](C(N)=O)NC(=O)[C@H](CC(C)C)NC(=O)[C@H](CC(=O)O)NC(=O)[C@H](CCCNC(=N)N)NC(=O)[C@H](Cc2ccccc2)NC(=O)[C@H](CO)NC(=O)[C@H](CCCCN)NC1=O` [Peptide 9] (Ac-FNMFCQLAFYSAAADPNLNEEQRNAKIKSFRDLC-NH2; disulfide 5-34): the IC50 was 10 to 100 µM.

The record behind these values is patent US12655185B2, “Peptide inhibitors of interleukin-23 and their use to treat inflammatory diseases” (Protagonist Therapeutics, Inc., priority 2016, dated 2026).
